# Results reported in patent publication US20260027102A1, “QUINOLYLNITRONE DERIVATIVES FOR USE IN THE PREVENTION AND/OR TREATMENT OF HEARING LOSS” (CONSEJO SUPERIOR DE INVESTIGACIONES CIENTÍFICAS (CSIC), priority 2022, published 2026).
# What was measured:
# [1] = system: HEI-OC1 mouse auditory cells; experiment: XTT cell viability assay in HEI-OC1 auditory cells with or without H2O2; type: cell-based
# Description: QN23 nitrone was tested in cell cultures of HEI-OC1 mouse auditory cells derived from the Immortomouse™ postnatal organ of Corti following protocols published by the group (Cervantes et al., J Clin Med. 2019 Sep. 14; 8 (9): 1464). HEI-OC1 cells were cultured in DMEM medium supplemented with 10% fetal bovine serum (Gibco), without antibiotics.
# Cells were treated with different doses of QN23 (10-50-100-150-200 μM) and with or without 1.2 mM H2O2. Cell viability was studied by XTT assay. Absorbance measurements at 450 and 660 nm were taken with the VERSAmax plate reader at 4 h, 6 h and 23 h after addition of XTT reagents. Viability results were calculated following the formula: Specific absorbance=[Abs450 nm (test)−Abs450 nm (blank)]−Abs660 nm (test). The wells without cells in the respective treatments were used as blanks. Data are represented as mean±SEM, considering the untreated control as 100% viability. Results are from 3 independent experiments and 7 wells/condition/experiment for QN23 nitrone without H2O2 treatment (A-C) or with treatment (D-E). Statistical significance was calculated by Student's test: *p<0.05; **p<0.01; ***p<0.001 in comparison vs. untreated control with QN23. […] After the exposure to H2O2, the cell viability was reduced about 50% due to the cell death associated to the oxidative damage caused by H2O2.
# The inventors also compared the effect of QN23 with N-acetylcysteine (NAC). To that end, QN23 nitrone was dissolved in absolute EtOH≥99.5% (#107017; Merck) and tested in vitro in a dose range of 10-200 μM. Cells were treated with increasing doses of H2O2 (1-1.4 mM; Merck).
# N-acetylcysteine (NAC) (0.5 mM; Sigma) was used as a reference antioxidant treatment. NAC is a prodrug of L-cysteine, itself a precursor of the biological antioxidant glutathione, among other intracellular actions (Ezerina et al., Cell Chem Biol. 2018 Apr. 19; 25 (4): 447-459.e4). Cells were treated with increasing doses of H2O2 (0.8-1.6 mM).
# In both cases, survival curves were performed using the CyQUANT™ XTT cell viability assay (#X12223; Invitrogen) after 2 hours of the administration of QN23 or NAC.
# Phenyl N-t-butylnitrone≥98% C6H5CH═N(O)C(CH3)3, PBN) (Sigma-Aldrich, catalogue number B7263) was dissolved as indicated by the manufacturer in Dimethyl sulfoxide (DMSO). DMSO was used as a solvent and had no detectable effects at the dose used (up to 0.1%). A solution 50 uM was prepared to determine the protective effect.
# Cell culture, treatments with PBN and XTT assays were performed as already reported for QN23 in sections above.
# C57BL/6JCrl mice = experiment: Noise-induced hearing loss in mice, auditory brainstem response (ABR) thresholds; type: in vivo; details: 24 h after noise exposure (105 dB, 30 min); QN23 2 mg/kg every 12 h intraperitoneally for 3 days, started 1 h before noise; vs vehicle; click and pure tones 4-32 kHz
# Description: The experiments were carried out in C57BL/6JCrl mice, male or female, aged 1.5 months at the beginning of the study.
# Noise exposure was performed inside a reverberation chamber. The animals were exposed to 105 dB SL for 30 minutes (Sanz L, Murillo-Cuesta S, Cobo P, Cediel-Algovia R, Contreras J, Rivera T, Varela-Nieto I, Avendaño C. Swept-sine noise-induced damage as a hearing loss model for preclinical assays. Front Aging Neurosci. 2015 Feb. 16; 7:7).
# Auditory function was assessed by recording auditory brainstem evoked potentials (ABR) at baseline and after noise exposure (1 day, 14 days and 28 days after exposure), according to protocol described in (Murillo-Cuesta S, Contreras J, Zurita E, Cediel R, Cantero M, Varela-Nieto I, Montoliu L. Melanin precursors prevent premature age-related and noise-induced hearing loss in albino mice. Pigment Cell Melanoma Res. 2010 February; 23 (1): 72-83. doi: 10.1111/j.1755-148X.2009.00646.x. Epub 2009 Oct. 19).
# The nitrone QN23 was prepared as described in WO2020/074666. The solution for its administration was always performed at the time of use by dissolving it under vigorous stirring in a mixture of ethanol, polyethylene glycol (PEG400, Sigma) and saline (1:200:60, V/V), until a stock solution of concentration 3.6 mg/ml was obtained. […]
compound,measurement,setting,value
"CC(=O)N[C@@H](CS)C(=O)O [NAC, N-acetylcysteine, reference compound]",Protective effect on cell viability at increasing doses of H2O2,"[1]; 0.5 mM NAC, H2O2 0.8-1.6 mM, 2 h",effectively protected from H2O2-induced oxidative damage and cell death at the highest doses tested
"CC(C)(C)[N+]([O-])=Cc1ccccc1 [PBN, Phenyl N-t-butylnitrone, reference compound]",Protective effect on cell viability at increasing doses of H2O2,"[1]; 50 μM PBN, without or with increasing doses of H2O2, 2 h, XTT read at 4 and 6 h, 1 experiment",no protection was observed when H2O2 doses were higher than 0.5 mM
"COc1ccc2nc(Cl)c(/C=[N+](\[O-])C(C)(C)C)cc2c1 [QN23, (Z)—N-tert-butyl-1-(2-chloro-6-methoxyquinolin-3-yl)methanimine oxide]",Auditory Brainstem Response thresholds after noise exposure,C57BL/6JCrl mice,significantly lower thresholds than those receiving vehicle
same,Cell viability at low H2O2 concentration (early stages of cell deterioration),"[1]; 50 μM QN23, 0.8 mM H2O2, 2 h",enhancement of cell viability even at concentrations as low as 0.8 mM H2O2
same,Protective effect on cell viability at increasing doses of H2O2,"[1]; 50 μM QN23, H2O2 0.8-1.6 mM, 2 h",cell viability superior at all H2O2 concentrations tested
same,Toxicity to cells (cell viability without H2O2),"[1]; QN23 10-200 μM for 2 h, without H2O2, XTT read at 4, 6 and 23 h",not toxic to the cells
same,Cell viability after exposure to H2O2,"[1]; QN23 10-50-100-150-200 μM with 1.2 mM H2O2 for 2 h, vs non-treated control group",significantly increased cell viability at all the doses tested
